BindingDB's records for doi:10.1016/s0960-894x(00)00138-4 (Berlex Biosciences, 2000)

molecular target: Cationic trypsin (Bos taurus); assay: In vitro inhibition of bovine trypsin.

| Ki | SMILES |
| --- | --- |
| 510 nM | N=C(N)c1ccc(-n2c3ccccc3c3ccc(OCc4ccc5ccc(C(=N)N)cc5c4)cc32)cc1 [7-[9-(4-Carbamimidoyl-phenyl)-9H-carbazol-2-yloxymethyl]-naphthalene-2-carboxamidine] |
| 20 nM | CCOC(=O)c1cc2ccc(OC3CCN(C(C)=N)CC3)cc2n1Cc1ccc2ccc(C(=N)N)cc2c1 [1-(7-Carbamimidoyl-naphthalen-2-ylmethyl)-6-[1-(1-imino-ethyl)-piperidin-4-yloxy]-1H-indole-2-carboxylic acid ethyl ester] |
| 1620 nM | N=C(N)c1ccc(-n2ccc3ccc(NCc4cccc(C(=N)N)c4)cc32)cc1 [3-{1-[4-amino(imino)methylphenyl]-1H-6-indolylaminomethyl}phenyl-iminomethanamine] |
| 410 nM | N=C(N)c1ccc(-n2ccc3ccc(NC(=O)c4cccc(C(=N)N)c4)cc32)cc1 [3-Carbamimidoyl-N-[1-(4-carbamimidoyl-phenyl)-1H-indol-6-yl]-benzamide] |
| 300 nM | N=C(N)c1ccc(-n2ccc3ccc(NCc4ccc5ccc(C(=N)N)cc5c4)cc32)cc1 [7-{[1-(4-Carbamimidoyl-phenyl)-1H-indol-6-ylamino]-methyl}-naphthalene-2-carboxamidine] |
| 90 nM | CN(C)C(=O)COc1ccc2c3ccccc3n(Cc3ccc4ccc(C(=N)N)cc4c3)c2c1 [2-[9-(7-Carbamimidoyl-naphthalen-2-ylmethyl)-9H-carbazol-2-yloxy]-N,N-dimethyl-acetamide] |
